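A five-concentration, 48-hour dose response in 96-well plates underlies each endpoint, interpolated linearly between surrounding concentrations. GI50: concentration for 50% inhibition of growth.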 Calls of active or inactive are those of the source. Cut-off read from the data, not from the text of the source: active = GI50 up to about 1.1 µM and inactive = higher.

The values that follow come from ChEMBL document CHEMBL1201862, “PubChem BioAssay data set” (2004).

Common to all, as to experiment: NCI-60 cell line screen, 48 h
Experiment [1] concerns SF-539.
Experiment [2] deals with Malme-3M.
In experiment [3] the test system is Hs-578T.
Experiment [4] concerns SK-OV-3.
In experiment [5] the test system is NCI-H522.
Experiment [6] relates to COLO 205.
Experiment [7] concerns EKVX.
Experiment [8] relates to T47D.
The test system of experiment [9] is NCI-H226.
The test system of experiment [10] is RPMI-8226.
Experiment [11] deals with HOP-92.
Experiment [12] deals with HOP-62.
For experiment [13], the system named is 786-0.
The subject of experiment [14] is OVCAR-5.
Experiment [15] concerns IGROV-1.
The subject of experiment [16] is SNB-19.
The subject of experiment [17] is MCF7.
Experiment [18] deals with OVCAR-4.
The test system of experiment [19] is KM12.

On to `Cc1cc(S(=O)(=O)Nc2nnc3c4ccccc4cnn23)c(S)cc1Cl`, for which the GI50 in experiment [1] was > 56.9 µM (inactive); in experiment [2] it was > 100 µM (inactive); in experiment [3] it was 40.1 µM (inactive); in experiment [4] it was 34.7 µM (inactive); in experiment [5], > 88.5 µM (inactive); in [6], > 100 µM (inactive). Also, the GI50 was 44 µM (inactive) in experiment [7]; 74.1 µM (inactive) in [8]; 24.1 µM (inactive) in experiment [9]; > 100 µM (inactive) in [10]; > 49.9 µM (inactive) in experiment [11]; 52.8 µM (inactive) in experiment [12]. The GI50 is > 74.3 µM (inactive) in experiment [13]; > 100 µM (inactive) in [14]; 39.2 µM (inactive) in experiment [15]; 26.5 µM (inactive) in experiment [16]; > 67.3 µM (inactive) in experiment [17]; > 100 µM (inactive) in [18]. Moreover, the GI50 in experiment [19] was 31.7 µM (inactive).
As for `N=C(N)N/N=C/c1c(-c2ccc([N+](=O)[O-])cc2)nc2sc(Cl)cn12`, the GI50 is 1.89 µM (inactive) in experiment [1]; 1.47 µM (inactive) in [2]; 1.03 µM (active) in experiment [3]; 1.8 µM (inactive) in experiment [4]; 1.48 µM (inactive) in experiment [5]; 0.658 µM (active) in [6]. Also, the GI50 in experiment [7] is 0.611 µM (active); in [8], 0.92 µM (active); in experiment [9] it was 1.76 µM (inactive); in experiment [10], 1.32 µM (inactive); in [11] it was 1.73 µM (inactive); in [12] it was 0.635 µM (active). Moreover, the GI50 is 0.212 µM (active) in [13]; 1.21 µM (inactive) in [14]; 1.78 µM (inactive) in experiment [15]; 0.667 µM (active) in [16]; 0.52 µM (active) in experiment [17]; 0.441 µM (active) in experiment [18]. Moreover, the GI50 in experiment [19] is 0.809 µM (active).
With `C[C@H](CCC(=O)NCCS(=O)(=O)O)[C@H]1CC[C@H]2[C@@H]3CC[C@@H]4C[C@H](O)CC[C@]4(C)[C@H]3CC[C@]12C`, the GI50 in [1], in [2], in experiment [3], in [4], in [5] and in experiment [6] was > 100 µM (inactive) throughout. Also, the GI50 in experiment [7], in [8], in [9], in experiment [10], in experiment [11] and in [12] was > 100 µM (inactive) each time. For the same molecule, the GI50 in experiment [13], in [14], in experiment [15], in experiment [16], in experiment [17] and in experiment [18] was > 100 µM (inactive) in each case. The GI50 in [19] is > 100 µM (inactive).
For `CCCCCC(CO)C(O)(C(F)(F)F)C(F)(F)F` (centres undefined), the GI50 in experiment [1], in [2], in experiment [3], in experiment [4], in experiment [5] and in experiment [6] was > 10 µM (inactive) in each case. In addition, the GI50 in [7], in experiment [8], in experiment [9], in experiment [10], in experiment [11] and in [12] was > 10 µM (inactive) in each case. Moreover, the GI50 in experiment [13], in [14], in experiment [15], in experiment [16], in experiment [17] and in experiment [18] was > 10 µM (inactive) each time. The GI50 in [19] is > 10 µM (inactive).
Take `O=c1oc2ccccc2c(Nc2ccc3c(c2)S(=O)(=O)c2ccccc2O3)c1[N+](=O)[O-]`: the GI50 was 25.3 µM (inactive) in experiment [1]; 23.5 µM (inactive) in experiment [2]; 36.7 µM (inactive) in [3]; 24 µM (inactive) in experiment [4]; 19.7 µM (inactive) in experiment [5]; 22.3 µM (inactive) in experiment [6]. In addition, the GI50 in experiment [7] was 30.6 µM (inactive); in experiment [8] it was 18.7 µM (inactive); in experiment [9], 25.7 µM (inactive); in experiment [10] it was 19.5 µM (inactive); in experiment [11], 20 µM (inactive); in experiment [12], 30 µM (inactive). The GI50 in experiment [13] was 21.1 µM (inactive); in experiment [14], 70 µM (inactive); in experiment [15] it was 21.6 µM (inactive); in experiment [16] it was 26.9 µM (inactive); in experiment [17] it was 21.8 µM (inactive); in experiment [18], 20 µM (inactive). Further, the GI50 in experiment [19] was 28.9 µM (inactive).
Turning to `O=C(NC/C(Cl)=C/Cl)Nc1c2ccccc2nc2ccccc12`, the GI50 in experiment [1] is 25.1 µM (inactive); in experiment [2], > 100 µM (inactive); in experiment [3] it was > 100 µM (inactive); in experiment [4], > 100 µM (inactive); in experiment [5], > 100 µM (inactive); in experiment [6], 29 µM (inactive). Also, the GI50 in experiment [7] is > 100 µM (inactive); in [8] it was 71.1 µM (inactive); in experiment [9], 31.8 µM (inactive); in [10], 53.3 µM (inactive); in experiment [11], 41.6 µM (inactive); in experiment [12], > 100 µM (inactive). For the same molecule, the GI50 was 33.3 µM (inactive) in experiment [13]; 99.3 µM (inactive) in [14]; 35.5 µM (inactive) in [15]; > 100 µM (inactive) in experiment [16]; > 100 µM (inactive) in [17]; 35.4 µM (inactive) in [18]. In experiment [19], the GI50 is > 100 µM (inactive).
As for `COc1ccc2c(c1)CN1C(=N2)CSC1c1c(Cl)cccc1[N+](=O)[O-]` (centres undefined), the GI50 is 15.1 µM (inactive) in experiment [1]; 30.2 µM (inactive) in experiment [2]; 24.7 µM (inactive) in experiment [3]; 39.7 µM (inactive) in [4]; 23.7 µM (inactive) in [5]; 11.4 µM (inactive) in experiment [6]. Besides, the GI50 is 25.4 µM (inactive) in [7]; 31 µM (inactive) in [8]; 11.9 µM (inactive) in [9]; 15.4 µM (inactive) in experiment [10]; 16.7 µM (inactive) in [11]; 34.3 µM (inactive) in experiment [12]. Further, the GI50 in experiment [13] is 25.9 µM (inactive); in experiment [14], 26.4 µM (inactive); in [15] it was 31 µM (inactive); in experiment [16] it was 29.9 µM (inactive); in experiment [17], 14.4 µM (inactive); in experiment [18], 31.5 µM (inactive). Moreover, in experiment [19], the GI50 was 19.5 µM (inactive).
Turning to `O=C(NC(Cc1c[nH]c2ccccc12)C(=O)O)/C(=C/c1ccccc1)NC(=O)c1ccccc1` (centres undefined), the GI50 is 49.4 µM (inactive) in experiment [1]; 22.5 µM (inactive) in [2]; 28.5 µM (inactive) in [3]; 54.2 µM (inactive) in experiment [4]; 25.3 µM (inactive) in [5]; > 100 µM (inactive) in experiment [6]. The GI50 in experiment [7] was 42.7 µM (inactive); in experiment [8] it was 36.2 µM (inactive); in experiment [9], > 100 µM (inactive); in experiment [10], 32.4 µM (inactive); in [11], 23.9 µM (inactive); in experiment [12], 41.3 µM (inactive). Moreover, the GI50 was > 100 µM (inactive) in experiment [13]; 56.1 µM (inactive) in [14]; 32.1 µM (inactive) in experiment [15]; > 92 µM (inactive) in experiment [16]; 50 µM (inactive) in experiment [17]; 71.1 µM (inactive) in experiment [18]. In addition, in [19], the GI50 was 57.9 µM (inactive).
Turning to `O=C1c2cccc([N+](=O)[O-])c2C(=O)N1c1ncn[nH]1`, the GI50 in [1] was 0.822 µM (active); in experiment [2] it was > 100 µM (inactive); in experiment [3] it was 36.4 µM (inactive); in [4], 32.7 µM (inactive); in experiment [5], > 100 µM (inactive); in experiment [6], > 100 µM (inactive). Moreover, the GI50 in experiment [7] was 53 µM (inactive); in experiment [8], > 100 µM (inactive); in experiment [9] it was 81.8 µM (inactive); in experiment [10], > 100 µM (inactive); in [11], 21.4 µM (inactive); in experiment [12], 38.9 µM (inactive). The GI50 in [13] is 58.1 µM (inactive); in experiment [14], > 100 µM (inactive); in experiment [15], > 100 µM (inactive); in experiment [16], 29.7 µM (inactive); in [17], > 100 µM (inactive); in experiment [18], > 100 µM (inactive). In addition, the GI50 in experiment [19] was > 100 µM (inactive).
Turning to `COc1ccc(OC)c(NC(=O)C(=O)Nn2c(S)nc3ccccc3c2=O)c1`, the GI50 in [1] was > 100 µM (inactive); in experiment [2], > 100 µM (inactive); in [3], > 100 µM (inactive); in experiment [4], > 100 µM (inactive); in experiment [5], > 100 µM (inactive); in experiment [7] it was 82.2 µM (inactive). Besides, the GI50 in experiment [8], in [9], in experiment [10], in [11], in experiment [12] and in experiment [13] was > 100 µM (inactive) in each case. Moreover, the GI50 in [14] is > 100 µM (inactive); in [15] it was 88.1 µM (inactive); in experiment [16], > 100 µM (inactive); in [17] it was > 100 µM (inactive); in [18], > 100 µM (inactive); in experiment [19], > 100 µM (inactive).
